# Test results as given in patent US6713475B2, “Tricyclic benzodiazepines as vasopressin receptor antagonists” (Ortho-McNeil Pharmaceutical, Inc., priority 1999, dated 2004).
# Key:
# human V-1 receptor = molecular target: T1, human V-1 receptor (Homo sapiens, UniProt P37288); experiment: In vitro recombinant vasopressin receptor binding assay (V1 Bdg), displacement of 3H-arginine vasopressin; conditions: for inhibition at 0.1 µM: read-out: V1 Bdg (% inh, 0.1 uM)
# T1 construct: expressed in transfected cells; host or cells: HEK-293
# Protocol: (§1) In vitro Recombinant Vasopressin Receptor Binding Assay
# (§2) Compounds were assessed for their ability to displace ^3H-arginine vasopressin from the human V-1 or V-2 receptor in HEK-293 cells. Assay buffer is 50 mM Tris-Cl, 5 mM MgCl2, 0.1% BSA (pH 7.5) containing 5 ug/ml of aprotinin, leupeptin, pepstatin, 50 ug/ml bacitracin, and 1 mM Pefabloc. ^3H-vasopressin is ^3H-arginine-8-vasopressin (68.5 Ci/mmol, final concentration in assay is 0.65-0.75 nM). Into wells of 96-well round bottom polypropylene plates were added buffer, test compound, membrane (containing cloned human V-1 or V-2 receptor), and ^3H-vasopressin. The reaction plates were allowed to sit at room temperature for one hour. The samples were filtered through Unifilter GF/C plates (presoaked in 0.3 polyethyleneimine). The plates were washed 5 times with cold physiological saline containing 0.05% Tween 20. After drying, the bottom of the filter plates were sealed and 0.025 ml of Microscint-20 was added to each filter. The top of the plate was sealed, and the plate was counted. Non-specific binding was determined by the addition of 1.25 uM arginine-8-vasopressin in those wells.
# V2 = V2 (Homo sapiens, UniProt P30518); experiment: In vitro recombinant vasopressin receptor binding assay (V2 Bdg), displacement of 3H-arginine vasopressin; set-up: expressed in transfected cells; host or cells: HEK-293; conditions: for V2 Bdg % inh: 0.1 uM, printed in parentheses in place of IC50; for IC50: membrane with cloned human V-2 receptor (HEK-293)
# Protocol: as §1
# as §2, with “Assay buffer is 50 mM Tris-Cl, 5 mM MgCl2, 0.1% BSA (pH 7.5) containing 5 ug/ml of aprotinin, leupeptin, pepstatin, 50 ug/ml bacitracin, and 1 mM Pefabloc. ^3H-vasopressin is ^3H-arginine-8-vasopressin (68.5 Ci/mmol, final concentration in assay is 0.65-0.75 nM).” left out, “counted.” for “counted. Non-specific binding was determined by the addition of 1.25 uM arginine-8-vasopressin in those wells.”
# T1 sequence (P37288 whole entry): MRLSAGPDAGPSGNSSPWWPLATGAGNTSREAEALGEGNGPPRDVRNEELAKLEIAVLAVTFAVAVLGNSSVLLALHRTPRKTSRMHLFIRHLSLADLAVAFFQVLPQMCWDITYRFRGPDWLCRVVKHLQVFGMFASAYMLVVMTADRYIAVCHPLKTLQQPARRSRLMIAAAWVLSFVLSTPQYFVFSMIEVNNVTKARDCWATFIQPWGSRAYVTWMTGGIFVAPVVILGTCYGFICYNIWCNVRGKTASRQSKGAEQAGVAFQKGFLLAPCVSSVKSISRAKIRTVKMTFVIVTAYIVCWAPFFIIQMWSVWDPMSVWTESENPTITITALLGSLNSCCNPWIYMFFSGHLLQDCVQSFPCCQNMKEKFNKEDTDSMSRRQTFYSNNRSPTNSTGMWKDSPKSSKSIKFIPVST
Compound,V1 Bdg % inh (human V-1 receptor; 1 uM),V2 Bdg % inh (V2),inhibition at 0.1 µM (human V-1 receptor),IC50 (V2),also measured
"COc1ccc(-c2ccccc2C(=O)Nc2ccc(C(=O)N3CC4CN(C)CCN4Cc4ccccc43)c(Cl)c2)cc1 (racemic) [Compound 67, (RS)-2-(4-Methoxy-phenyl)-N-[3-chloro-4-(1,3,4,12a-tetrahydro-2-methyl-6H-[1,4]pyrazino[4,3-a][1,4]-benzodiazepin-11(12H)-yl-carbonyl)phenyl]benzamide]",(14%/1 uM),(36%/0.1 uM),,,
"CN1CCN2Cc3ccccc3N(C(=O)c3ccc(NC(=O)c4c(Cl)cccc4Cl)cc3Cl)CC2C1 (racemic) [Compound 98, (RS)-2,6-Dichloro-N-[3-chloro-4-(1,3,4,12a-tetrahydro-2-methyl-6H-[1,4]pyrazino[4,3-a][1,4]-benzodiazepin-11(12H)-yl-carbonyl)phenyl]benzamide]",(26%/1 uM),(12%/0.1 uM),,,
"Cc1ccc(-c2ccccc2C(=O)Nc2ccc(C(=O)N3CC4CN(C)CCN4Cc4ccccc43)c(C(F)(F)F)c2)cc1 (racemic) [Compound 76, (RS)-2-(4-Methyl-phenyl)-N-[3-trifluoromethyl-4-(1,3,4,12a-tetrahydro-2-methyl-6H-[1,4]pyrazino[4,3-a][1,4]-benzodiazepin-11(12H)-yl-carbonyl)phenyl]benzamide]",(18%/1 uM),(50%/0.1 uM),,,
"Cc1cccc(C)c1C(=O)Nc1ccc(C(=O)N2CC3COCCN3Cc3ccccc32)c(Cl)c1 (racemic) [Compound 10, (RS)-2,6-Dimethyl-N-[3-chloro-4-(1,3,4,12a-tetrahydro-6H-[1,4]oxazino[4,3-a][1,4]-benzodiazepin-11(12H)-yl-carbonyl)phenyl]benzamide]",,,15%,9 nM,
"COc1ccc2c(c1)CN1CCSCC1CN2C(=O)c1ccc(NC(=O)c2ccccc2-c2ccccc2)cc1 (racemic) [Compound 31, (RS)-2-Phenyl-N-[4-(8-methoxy-1,3,4,12a-tetrahydro-6H-[1,4]thiazino[4,3-a][1,4]-benzodiazepin-11(12H)-yl-carbonyl)phenyl]benzamide]",,,,43 nM,"inhibition at 10 µM (human V-1 receptor; 10 uM, read-out: V1 Bdg % inh): 27%"
"(RS)-2-Methyl-3-chloro-N-[3-chloro-4-(1,3,4,12a-tetrahydro-2-methyl-6H-[1,4]pyrazino[4,3-a][1,4]-benzodiazepin-11(12H)-yl-carbonyl)phenyl]benzamide [Compound 95]",(10%/1 uM),(38%/0.1 uM),,,
"COc1cc(C(=O)N2CC3CN(C)CCN3Cc3ccccc32)ccc1NC(=O)c1ccccc1-c1ccccc1 (racemic) [Compound 72, (RS)-2-Phenyl-N-[2-methoxy-4-(1,3,4,12a-tetrahydro-2-methyl-6H-[1,4]pyrazino[4,3-a][1,4]-benzodiazepin-11(12H)-yl-carbonyl)phenyl]benzamide]",(6%/1 uM),(48%/0.1 uM),,,
"O=C(Nc1ccc(C(=O)N2C[C@H]3COCCN3Cc3ccccc32)c(Cl)c1)c1cc(O)ccc1-c1ccccc1 [Compound 8, (S)-2-Phenyl-5-hydroxy-N-[3-chloro-4-(1,3,4,12a-tetrahydro-6H-[1,4]oxazino[4,3-a][1,4]-benzodiazepin-11(12H)-yl-carbonyl)phenyl]benzamide]",,,32%,27 nM,
"O=C(Nc1ccc(C(=O)N2CC3COCCN3C(=O)c3ccccc32)c(Cl)c1)c1ccccc1-c1ccccc1 (racemic) [Compound 21, (RS)-2-Phenyl-N-[3-chloro-4-(1,3,4,12a-tetrahydro-6H-[1,4]oxazino[4,3-a][1,4]-5-oxo-benzodiazepin-11(12H)-yl-carbonyl)phenyl]benzamide]",,(59%/0.1 uM),,,"V1 Bdg (% inh, 0.1 uM) (human V-1 receptor): 2%"
"O=C(Nc1ccc(C(=O)N2C[C@H]3COCCN3Cc3ccccc32)c(Cl)c1)c1ccccc1-c1ccc(O)cc1 [Compound 5, (S)-2-(4-Hydroxyphenyl)-N-[3-chloro-4-(1,3,4,12a-tetrahydro-6H-[1,4]oxazino[4,3-a][1,4]-benzodiazepin-11(12H)-yl-carbonyl)phenyl]benzamide]",,,29%,9 nM,
"CN1CCN2Cc3ccccc3N(C(=O)c3ccc(NC(=O)c4cc(F)c(F)c(F)c4F)cc3Cl)CC2C1 (racemic) [Compound 93, (RS)-2,3,4,5-Tetrafluoro-N-[3-chloro-4-(1,3,4,12a-tetrahydro-2-methyl-6H-(1,4]pyrazino[4,3-a][1,4]-benzodiazepin-11(12H)-yl-carbonyl)phenyl]benzamide]",(49%/1 uM),(24%/0.1 uM),,,
"CN1CCN2Cc3ccccc3N(C(=O)c3ccc(NC(=O)c4cc(F)ccc4-c4ccccc4)cc3Cl)CC2C1 (racemic) [Compound 100, (RS)-2-Phenyl-5-fluoro-N-[3-chloro-4-(1,3,4,12a-tetrahydro-2-methyl-6H-[1,4]pyrazino[4,3-a][1,4]-benzodiazepin-11(12H)-yl-carbonyl)phenyl]benzamide]",,,,37 nM,"inhibition at 1 µM (human V-1 receptor; 1 uM, read-out: V1 Bdg % inh): 6%; inhibition at 0.1 µM (V2; read-out: V2 Bdg % inh): 72%"
"Cc1ccc(F)c(C(=O)Nc2ccc(C(=O)N3CC4CN(C)CCN4Cc4ccccc43)c(Cl)c2)c1 (racemic) [Compound 96, (RS)-2-Fluoro-5-methyl-N-[3-chloro-4-(1,3,4,12a-tetrahydro-2-methyl-6H-[1,4]pyrazino[4,3-a][1,4]-benzodiazepin-11(12H)-yl-carbonyl)phenyl]benzamide]",(9%/1 uM),(3%/0.1 uM),,,
"(RS)-3,5-Dimethyl-N-[3-chloro-4-(1,3,4,12a-tetrahydro-6H-[1,4]thiazino[4,3-a][1,4]-benzodiazepin-11(12H)-yl-carbonyl)phenyl]benzamide [Compound 41]",,(38%/0.1 uM),,,"V1 Bdg (% inh, 0.1 uM) (human V-1 receptor): 5%"
"Cc1cc(NC(=O)c2ccccc2-c2ccccc2)ccc1C(=O)N1CC2CN(C)CCN2Cc2ccccc21 (racemic) [Compound 89, (RS)-2-Phenyl-N-[3-methyl-4-(1,3,4,12a-tetrahydro-2-methyl-6H-[1,4]pyrazino[4,3-a][1,4]-benzodiazepin-11(12H)-yl-carbonyl)phenyl]benzamide]",(51%/1 uM),(56%/0.1 uM),,,
"COc1cc(NC(=O)c2ccccc2-c2ccc(C)cc2)ccc1C(=O)N1CC2CN(C)CCN2Cc2ccccc21 (racemic) [Compound 85, (RS)-2-(4-Methyl-phenyl)-N-[3-methoxy-4-(1,3,4,12a-tetrahydro-2-methyl-6H-[1,4]pyrazino[4,3-a][1,4]-benzodiazepin-11(12H)-yl-carbonyl)phenyl]benzamide]",(19%/1 uM),(54%/0.1 uM),,,
"O=CN1CCN2Cc3ccccc3N(C(=O)c3ccc(NC(=O)c4ccccc4-c4ccccc4)cc3)CC2C1 (racemic) [Compound 59, (RS)-2-Phenyl-N-[4-(1,3,4,12a-tetrahydro-2-formyl-6H-[1,4]pyrazino[4,3-a][1,4]-benzodiazepin-11(12H)-yl-carbonyl)phenyl]benzamide]",,(29%/0.1 uM),,,V1 Bdg % inh (human V-1 receptor; 10 uM): (17%/10 uM)
"Cc1ccc(-c2ccccc2C(=O)Nc2ccc(C(=O)N3CC4COCCN4Cc4ccccc43)c(Cl)c2)cc1 (racemic) [Compound 25, (RS)-2-(4-Methyl-phenyl)-N-[3-chloro-4-(1,3,4,12a-tetrahydro-6H-[1,4]oxazino[4,3-a][1,4]-benzodiazepin-11(12H)-yl-carbonyl)phenyl]benzamide]",,,60%,12 nM,
"Cc1ccc(-c2ccccc2C(=O)Nc2ccc(C(=O)N3CC4COCCN4Cc4ccccc43)c(C)c2)cc1 (racemic) [Compound 28, (RS)-2-(4-Methyl-phenyl)-N-[3-methyl-4-(1,3,4,12a-tetrahydro-6H-[1,4]oxazino[4,3-a][1,4]-benzodiazepin-11(12H)-yl-carbonyl)phenyl]benzamide]",,,14%,10 nM,
"O=C(Nc1ccc(C(=O)N2CC3COCCN3Cc3ccccc32)c(O)c1)c1ccccc1-c1ccccc1 (racemic) [Compound 23, (RS)-2-Phenyl-N-[3-hydroxy-4-(1,3,4,12a-tetrahydro-6H-[1,4]oxazino[4,3-a][1,4]-benzodiazepin-11(12H)-yl-carbonyl)phenyl]benzamide]",,,33%,10 nM,
"COc1cc(NC(=O)c2ccccc2-c2ccccc2)ccc1C(=O)N1CC2COCCN2Cc2ccccc21 (racemic) [Compound 14, (RS)-2-Phenyl-N-[3-methoxy-4-(1,3,4,12a-tetrahydro-6H-[1,4]oxazino[4,3-a][1,4]-benzodiazepin-11(12H)-yl-carbonyl)phenyl]benzamide]",,,36%,9 nM,
